Test results: paper PMC10920779, “Targeting P2Y14R protects against necroptosis of intestinal epithelial cells through PKA/CREB/RIPK1 axis in ulcerative colitis” (Nature Communications, 2024)
“And” between values parts separate entries of the source, which are not always exact repeats. Equal entries are not always repeated.

How the values were obtained:
[1] = test system: intestinal organoids; test: TSZ-induced necroptosis in intestinal organoids (PI staining); assay type: cell-based, mouse; details: P2Y14Rfl/fl organoids, UDPG+TSZ
Procedure: Crypts were released from the murine small intestine by incubation for 30 min at 4°C in PBS containing 2 mM EDTA. Isolated crypts were counted and pelleted. […] Organoid media were changed every 3 days. […] Dead cell imaging in live organoids was performed on the fluorescence microscope (BX53, Olympus Optical), and analyzed by image j.

[2] = test system: PKA and CREB phosphorylation; test: Immunoblotting of p-PKA and p-CREB in HCT-116 cells; assay type: cell-based, human
Procedure: (§1) Tissues and cells were lysed using RIPA lysis buffer (Beyotime Biotechnology) containing protease and phosphatase inhibitor, homogenated, and centrifuged. The protein concentration was determined by BCA protein assay (Beyotime Biotechnology). Equal concentrations of proteins were separated in a 10% SDS-PAGE and transferred to PVDF membrane. […] Densitometry was quantified using ImageJ software.

[3] = test system: PKA and CREB phosphorylation; test: Immunoblotting of p-PKA and p-CREB in HT-29 cells; assay type: cell-based, human
Procedure: as §1

[4] = test system: HT-29 cells; test: TSZ-induced necroptosis in HT-29 cells (CCK8 viability, PI/Hoechst, H&E staining); assay type: cell-based, human
Procedure: (§2) Necroptosis was induced by pretreatment with TNF‐α (20 ng·mL^−1) plus z‐VAD‐fmk (20 μM) and Smac mimetic (BV6, 2 μM) for 8 h, then stained cells with hematoxylin/eosin. For PI/Hoechst staining, cells were stained with PI and Hoechst for 20 min, then photographed with a fluorescence microscope and at least 300 cells were counted. The ratio of PI positive cells (%) = (PI positive cells) / (Hoechst positive cells) × 100%. For cell viability assay, CCK8 was added to the well and incubated for 1 − 2 h and then OD450 was measured using a multi-mode microplate reader (Cytation5, BioTek).

[5] = test system: MLKL phosphorylation; test: Immunoblotting of p-MLKL/MLKL in HT-29 cells; assay type: cell-based, human; details: P2Y14R-OE cells + TSZ, replicates, supplement Figure 2e
Procedure: as §1

[6] = test system: Ripk1 mRNA; test: RT-PCR of Ripk1 mRNA in intestinal epithelial cells of experimental colitis mice; assay type: in vivo, mouse; details: Figure 7i, group TSZ+UDPG+Nec-1s
Procedure: Colon tissues derived from the euthanized by carbon dioxide inhalation mice were opened longitudinally and washed in pre-cooling PBS for three times. Then, the tissues were cut into 3 mm^2 pieces and incubated with 5 mM EDTA solution in PBS on a constant temperature shaker at 200 rpm for 25 min at 37°C. Then, let it stand at room temperature for 30 seconds and collected the supernatant. Next, repeated the above process once. Supernatants from the above step were combined and centrifuged at 500 g for 8 min. Abandon the supernatants and obtain IECs.
(§3) Total RNA was extracted from cells or colonic tissues using Trizol (Thermo) under the manufacturer’s instructions. First strand cDNA was synthesized using the PrimeScript RT Reagent Kit (480, Abm). SYBR Green Master Mix reagents (Q331-02, Vazyme) and primer mixtures (Table S1) were used for the real-time PCR. […] The procedure was as described in the kit provided by the manufacturer. Briefly, isolated IECs were fixed by 1% formaldehyde, and fragmented by sonication. CREB was then used for immunoprecipitation. After washing and reverse-crosslinking, the precipitated DNA was amplified by primers and quantified by the qPCR. Primer sequences can be found in Supplementary Table 1.

[7] = test system: Ripk1 mRNA; test: RT-PCR of Ripk1 mRNA in HCT-116 cells; assay type: cell-based, human
From the text: as §3

[8] = test system: CREB binding to Ripk1 promoter; test: ChIP-qPCR with anti-CREB on Ripk1 gene promoter in HCT-116 cells; assay type: cell-based, human
From the text: as §3

[9] = test system: MLKL phosphorylation; test: Immunoblotting of p-MLKL/MLKL in HCT-116 cells; assay type: cell-based, human; details: P2Y14R-OE cells + TSZ, replicates, supplement Figure 2g
Procedure: as §1

[10] = test system: Ripk1 mRNA; test: RT-PCR of Ripk1 mRNA in HT-29 cells; assay type: cell-based, human
From the text: as §3

[11] = test system: HCT-116 cells; test: TSZ-induced necroptosis in HCT-116 cells (PI/Hoechst staining); assay type: cell-based, human
Procedure: as §2

[12] = test system: CREB binding to Ripk1 promoter; test: ChIP-qPCR with anti-CREB on Ripk1 gene promoter in HT-29 cells; assay type: cell-based, human
From the text: as §3

[13] = HCT-116 cells, UDPG+TSZ, pre-treatment
[14] = HT-29 cells, UDPG+TSZ, pre-treatment

Q: CN1C(=O)NC(Cc2c[nH]c3c(Cl)cccc23)C1=O (centres unmarked) [Nec-1s] was tested. Which “UDPG-increased TSZ necroptosis in organoids” value [1] did it give?
A: The value was “remarkably attenuated this damage”.

Q: And the P-PKA/PKA ([2]; Figure 5n, second block, added to UDPG+TSZ)?
A: Its P-PKA/PKA is 0.2244 and 0.2706 and 0.2071 and 0.4048 and 0.2633.

Q: And the “Phosphorylation level of PKA/CREB pathway” value ([2]; UDPG+TSZ)?
A: Its value is “did not affect the phosphorylation level of PKA/CREB pathway”.

Q: What about the “Phosphorylation level of PKA/CREB pathway” value ([3]; UDPG+TSZ) of the same compound?
A: The value was “did not affect the phosphorylation level of PKA/CREB pathway”.

Q: What about the P-CREB/CREB ([3]; added to UDPG+TSZ, Figure 5k) of the same compound?
A: The P-CREB/CREB was 0.2673 and 0.2178 and 0.2551 and 0.2611 and 0.3759.

Q: What about the “UDP-glucose derived damage on TSZ-stimulated necroptosis” value ([4]; HT-29 cells, UDPG+TSZ) of the same compound?
A: The value was “remarkably attenuated the UDP-glucose derived damage on TSZ-stimulated necroptosis”.

Q: What about the Cell viability ([4]; P2Y14R-OE cells + TSZ, replicates) of the same compound?
A: The Cell viability was 99.7919 and 100.274 and 99.3783 and 100.966 and 100.911 and 101.005.

Q: And the “PI positive (%)” value ([4]; P2Y14R-OE cells + TSZ, replicates, supplement Figure 2c)?
A: Its value is 6.21% and 5.544% and 2.585%.

Q: And the TSZ-stimulated necroptosis ([4]; P2Y14R-overexpression HT-29 cells, 1h pre-treatment, TSZ 8 h)?
A: The TSZ-stimulated necroptosis was “alleviated TSZ stimulated IECs necroptosis”.

Q: And the P-MLKL/MLKL [5]?
A: Its P-MLKL/MLKL is 2.79 and 2.6518 and 3.608 and 1.739 and 2.51.

Q: And the “Expression of Ripk1 in IEC, 2^△△CT” value [6]?
A: Its value is 1.11 and 1.102 and 0.9517 and 0.9698 and 1.16.

Q: What about the “Ripk1 transcript (mRNA)” value [7, 13] of the same compound?
A: The value was “showed no effect”.

Q: And the “Expression of Ripk1 in HCT-116 cell, 2^△△CT” value ([7]; added to TSZ+UDPG)?
A: Its value is 2.77 and 2.8504 and 2.771 and 2.541 and 2.7034.

Q: And the “CREB binding Ripk1 promoter” value ([8]; Figure 5p, added to TSZ+UDPG)?
A: Its value is 42.22% and 33.74% and 27.53%.

Q: What about the “Decrease of binding between CREB and Ripk1 promoter (ChIP)” value [8, 13] of the same compound?
A: The value was “did not affect this process”.

Q: What about the P-MLKL/MLKL [9] of the same compound?
A: Its P-MLKL/MLKL is 2.175 and 2.507 and 2.289 and 2.573 and 2.48.

Q: And the “Ripk1 transcript (mRNA)” value [10, 14]?
A: The value was “showed no effect”.

Q: What about the “Expression of Ripk1 in HT-29 cell, 2^△△CT” value ([10]; added to TSZ+UDPG) of the same compound?
A: Its value is 3.657 and 4.786 and 3.641 and 3.399 and 4.214 and 3.302.

Q: And the “UDP-glucose derived damage on TSZ-stimulated necroptosis” value ([11]; HCT-116 cells, UDPG+TSZ)?
A: Its value is “remarkably attenuated the UDP-glucose derived damage on TSZ-stimulated necroptosis”.

Q: And the “PI positive (%)” value ([11]; P2Y14R-OE cells + TSZ, replicates, supplement Figure 2f)?
A: Its value is 1.2% and 1.6% and 3.0%.

Q: And the TSZ-stimulated necroptosis ([11]; P2Y14R-overexpression HCT-116 cells, pre-treated)?
A: Its TSZ-stimulated necroptosis is “alleviated this phenomenon”.

Q: What about the “CREB binding Ripk1 promoter” value ([12]; Figure 5m, added to TSZ+UDPG) of the same compound?
A: The value was 4.90% and 6.57% and 1.83%.

Q: And the “Decrease of binding between CREB and Ripk1 promoter (ChIP)” value [12, 14]?
A: The value was “did not affect this process”.
